Reference: the NIST ThermoML archive (doi:10.1016/j.fluid.2015.09.010)

Conditions: Gas, single sinker densimeter

CCC [propane]
Conditions	mass density [kg/m3]
258.14 K, 101.23 kPa	2.1368
258.15 K, 201.63 kPa	4.3743
258.15 K, 276.61 kPa	6.1388
263.16 K, 209.67 kPa	4.4546
263.17 K, 101.09 kPa	2.0885
263.17 K, 314.8 kPa	6.8907
268.14 K, 251.5 kPa	5.2792
268.15 K, 101.59 kPa	2.0567
268.16 K, 297.13 kPa	6.3169
268.16 K, 386.83 kPa	8.4369
273.14 K, 250.22 kPa	5.1361
273.15 K, 101.64 kPa	2.0179
273.15 K, 101.65 kPa	2.0177
273.15 K, 462.55 kPa	10.0438
278.14 K, 283.52 kPa	5.7427
278.14 K, 542.76 kPa	11.76
278.15 K, 105.47 kPa	2.0544
283.13 K, 101.63 kPa	1.942
283.13 K, 284.93 kPa	5.6533
283.13 K, 452.56 kPa	9.3303
283.13 K, 615.83 kPa	13.2515
288.21 K, 421.87 kPa	8.433
288.21 K, 538.6 kPa	11.0628
288.22 K, 101.88 kPa	1.9105
288.22 K, 217.75 kPa	4.1713
288.22 K, 322.62 kPa	6.3129
288.22 K, 653.34 kPa	13.8134
293.1 K, 803.62 kPa	17.2181
293.12 K, 106.57 kPa	1.9628
293.12 K, 340.88 kPa	6.5552

F/C=C/C(F)(F)F [trans-1,3,3,3-tetrafluoropropene]
Conditions	mass density [kg/m3]
263.17 K, 142.52 kPa	7.8479
263.18 K, 101.66 kPa	5.5042
263.18 K, 124.43 kPa	6.8014
268.16 K, 105.74 kPa	5.6056
268.16 K, 137.08 kPa	7.3536
268.17 K, 168.48 kPa	9.1497
273.11 K, 102.98 kPa	5.3503
273.12 K, 145.02 kPa	7.6483
273.12 K, 198.33 kPa	10.6692
278.14 K, 103.54 kPa	5.2727
278.14 K, 152.59 kPa	7.8948
278.14 K, 200.35 kPa	10.5385
278.14 K, 249.93 kPa	13.3894
283.14 K, 106.17 kPa	5.3014
283.15 K, 201.69 kPa	10.3769
283.15 K, 290.13 kPa	15.3909
283.15 K, 303.37 kPa	16.1704
288.11 K, 185.99 kPa	9.3221
288.12 K, 261.69 kPa	13.4297
288.12 K, 338.42 kPa	17.8195
288.13 K, 107.78 kPa	5.2812
288.13 K, 356.37 kPa	18.8808
293.16 K, 106.73 kPa	5.1257
293.16 K, 210.6 kPa	10.407
293.16 K, 302.68 kPa	15.3725
293.16 K, 408.92 kPa	21.5052
